Test results as given in US10774051B2, “6-membered heterocyclic derivatives and pharmaceutical composition comprising the same” (Shionogi & Co., Ltd., priority 2015, dated 2020).

These compounds were tested against human P2X7 receptor (Homo sapiens, UniProt Q99572, R270H/Y155H) (assay: Evaluation of human P2X7 receptor inhibitory activity (Yo-Pro uptake, BzATP stimulation, FLIPR TETRA)). Details: 1321N1 cells stably expressing human P2X7 receptor; BzATP stimulation, Yo-Pro uptake; read-out: IC50 (antagonistic activity for the human P2X7 receptor).
Format: cell-based
How it was run: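 Yo-Pro dye uptake triggered by BzATP was monitored by FLIPR in human P2X7-transfected 1321N1 cells (SNP variant) in HEPES-buffered HBSS, pH 7.4-7.5. Compound was dispensed 8 min post-stimulation, then signal read for 20 min; IC50 derived logistically from inhibition of the fluorescence range.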

| SMILES | IC50 [nM] |
| --- | --- |
| COc1cn(Cc2cc(C)cc(F)c2)c(Nc2cccc(Cl)c2C)nc1=O [Compound I-0425] | 19 |
| COc1cn(Cc2cc(F)cc(F)c2)c(Nc2cc(C)c(F)cc2C)nc1=O [Compound I-0437] | 8 |
| COc1cc(C)c(Nc2nc(=O)c(OC)cn2Cc2cc(F)cc(Cl)c2)cc1OC [Compound I-0452] | 110 |
| CCc1ccccc1CNc1nc(=O)c(OC)cn1Cc1ccc(F)c(Cl)c1 [Compound I-0453] | 73 |
| COc1cn(Cc2ccc(F)c(F)c2)c(Nc2cccc(OC(F)F)c2C)nc1=O [Compound I-0480] | 4 |
| COc1cn(Cc2cccc(Cl)c2)c(Nc2cccc3[nH]c(C)cc23)nc1=O [Compound I-0487] | 25 |

Same assay, conditions: 1321N1 cells stably expressing human P2X7 receptor; BzATP stimulation, Yo-Pro uptake; read-out: IC50 (antagonistic activity for the human P2X7 receptor), class symbol

| SMILES | IC50 [nM] |
| --- | --- |
| COc1cn(Cc2ccccc2OC(F)F)c(Nc2cccc(Cl)c2C)nc1=O [Compound I-0421] | 10 to 100 |
| COc1cn(Cc2ccccc2COC(F)F)c(Nc2cccc(Cl)c2C)nc1=O [Compound I-0422] | 500 to 1000 |
| COc1cn(Cc2ccccc2)c(Nc2cc(Cl)c(Cl)cc2C)nc1=O [Compound I-0423] | 10 to 100 |
| COc1cc(C)cc(Nc2nc(=O)c(OC)cn2Cc2ccc(F)c(Cl)c2)c1C [Compound I-0424] | < 10 |
| COc1cn(Cc2ccc(F)c(Cl)c2)c(Nc2cc(Cl)c(Cl)cc2C)nc1=O [Compound I-0426] | 10 to 100 |
| COc1cc(F)cc(Cn2cc(OC)c(=O)nc2Nc2cccc(Cl)c2C)c1 [Compound I-0427] | 100 to 500 |
| COc1cc(C)cc(Nc2nc(=O)c(OC)cn2Cc2cccc(Cl)c2)c1C [Compound I-0428] | < 10 |
| COc1cn(Cc2ccccc2)c(Nc2cccc(SC)c2C)nc1=O [Compound I-0429] | < 10 |
| COc1cn(Cc2ccc(F)c(Cl)c2)c(Nc2cccc(SC)c2C)nc1=O [Compound I-0430] | < 10 |
| COc1cn(Cc2ccccc2)c(Nc2cc3sc(C)nc3cc2C)nc1=O [Compound I-0431] | 10 to 100 |
| COc1cn(Cc2cccc(Cl)c2)c(Nc2cccc(N(C)C)c2C)nc1=O [Compound I-0432] | 10 to 100 |
| COc1cn(Cc2ccccc2)c(Nc2cc(C)c(F)cc2C)nc1=O [Compound I-0433] | < 10 |
| COc1cn(Cc2ccc(F)c(F)c2)c(Nc2cc(C)ccc2C)nc1=O [Compound I-0434] | < 10 |
| CCc1ccccc1Nc1nc(=O)c(OC)cn1Cc1cc(F)cc(Cl)c1 [Compound I-0435] | 10 to 100 |
| COc1cn(Cc2cc(F)cc(F)c2)c(Nc2cc(C)ccc2C)nc1=O [Compound I-0436] | < 10 |
| COc1cccc(Nc2nc(=O)c(OC)cn2Cc2cc(F)cc(F)c2)c1C [Compound I-0438] | < 10 |
| COc1cc(C)c(Nc2nc(=O)c(OC)cn2Cc2cc(F)cc(F)c2)cc1OC [Compound I-0439] | < 10 |
| CCc1cc(OC)ccc1Nc1nc(=O)c(OC)cn1Cc1cc(F)cc(F)c1 [Compound I-0440] | < 10 |
| COc1cn(Cc2cc(F)cc(F)c2)c(Nc2cccc3sccc23)nc1=O [Compound I-0441] | < 10 |
| COc1cn(Cc2cccc(F)c2)c(Nc2cc(C)c(F)cc2C)nc1=O [Compound I-0442] | < 10 |
| COc1cn(Cc2ccc(F)cc2)c(Nc2cc(C)c(F)cc2C)nc1=O [Compound I-0443] | < 10 |
| COc1cn(Cc2cccc(Cl)c2)c(Nc2cc(-c3nnco3)ccc2C)nc1=O [Compound I-0444] | 10 to 100 |
| COc1cn(Cc2cc(F)cc(Cl)c2)c(Nc2cc(C)ccc2C)nc1=O [Compound I-0445] | 10 to 100 |
| COc1cn(Cc2ccccc2OC(F)F)c(Nc2cccc(Cl)c2C)nc1=O [Compound I-0446] | < 10 |
| COc1cn(Cc2ccccc2COC(F)F)c(Nc2cccc(Cl)c2C)nc1=O [Compound I-0447] | < 10 |

| SMILES | IC50 [nM] |
| --- | --- |
| COc1cn(Cc2ccccc2)c(Nc2cc(Cl)c(Cl)cc2C)nc1=O [Compound I-0448] | 10 to 100 |
| COc1cc(C)cc(Nc2nc(=O)c(OC)cn2Cc2ccc(F)c(Cl)c2)c1C [Compound I-0449] | < 10 |
| COc1cn(Cc2cc(C)cc(F)c2)c(Nc2cccc(Cl)c2C)nc1=O [Compound I-0450] | 10 to 100 |
| COc1cn(Cc2ccc(F)c(Cl)c2)c(NCc2cccc(Cl)c2C)nc1=O [Compound I-0451] | 100 to 500 |
| CCc1ccccc1CNc1nc(=O)c(OC)cn1Cc1cc(F)cc(F)c1 [Compound I-0454] | 10 to 100 |
| CCOc1ccc(C)c(Nc2nc(=O)c(OC)cn2Cc2ccccc2)c1 [Compound I-0455] | 10 to 100 |
| CCOc1ccc(C)c(Nc2nc(=O)c(OC)cn2Cc2cccc(Cl)c2)c1 [Compound I-0456] | 10 to 100 |
| COc1cn(Cc2ccccc2OC(F)F)c(Nc2cccc(Cl)c2C)nc1=O [Compound I-0457] | < 10 |
| COc1cn(Cc2ccccc2COC(F)F)c(Nc2cccc(Cl)c2C)nc1=O [Compound I-0458] | 10 to 100 |
| COc1cn(Cc2ccccc2)c(Nc2cc(Cl)c(Cl)cc2C)nc1=O [Compound I-0459] | < 10 |
| COc1cc(C)cc(Nc2nc(=O)c(OC)cn2Cc2ccc(F)c(Cl)c2)c1C [Compound I-0460] | 10 to 100 |
| COc1cn(Cc2cc(C)cc(F)c2)c(Nc2cccc(Cl)c2C)nc1=O [Compound I-0461] | < 10 |
| COc1cn(Cc2ccccc2OC(F)F)c(Nc2cccc(Cl)c2C)nc1=O [Compound I-0462] | 10 to 100 |
| COc1cn(Cc2ccccc2COC(F)F)c(Nc2cccc(Cl)c2C)nc1=O [Compound I-0463] | < 10 |
| COc1cn(Cc2ccccc2)c(Nc2cc(Cl)c(Cl)cc2C)nc1=O [Compound I-0464] | < 10 |
| COc1cc(C)cc(Nc2nc(=O)c(OC)cn2Cc2ccc(F)c(Cl)c2)c1C [Compound I-0465] | < 10 |
| COc1cn(Cc2cc(C)cc(F)c2)c(Nc2cccc(Cl)c2C)nc1=O [Compound I-0466] | 10 to 100 |
| COc1cn(Cc2ccc(F)c(F)c2)c(Nc2cccc(C(F)(F)F)c2C)nc1=O [Compound I-0467] | < 10 |
| COc1cn(Cc2ccc(F)c(Cl)c2)c(Nc2cccc(C(F)(F)F)c2C)nc1=O [Compound I-0468] | 10 to 100 |
| COc1cc(C)c(Nc2nc(=O)c(OC)cn2Cc2cc(F)cc(Cl)c2)cc1OC [Compound I-0469] | < 10 |
| COc1cn(Cc2cc(F)cc(F)c2)c(Nc2cccc(C(F)(F)F)c2C)nc1=O [Compound I-0470] | 10 to 100 |
| Cc1c(Cl)cccc1Nc1nc(=O)c(F)cn1Cc1ccc(F)c(F)c1 [Compound I-0471] | < 10 |
| Cc1c(Cl)cccc1Nc1nc(=O)c(Cl)cn1Cc1ccc(F)c(F)c1 [Compound I-0472] | < 10 |
| COc1cc(Nc2nc(=O)c(OC)cn2Cc2ccccc2)c(C)cc1Cl [Compound I-0473] | < 10 |
| COc1cn(Cc2ccccc2OC(F)F)c(Nc2cccc(Cl)c2C)nc1=O [Compound I-0474] | < 10 |

| SMILES | IC50 [nM] |
| --- | --- |
| COc1cn(Cc2ccccc2COC(F)F)c(Nc2cccc(Cl)c2C)nc1=O [Compound I-0475] | < 10 |
| COc1cn(Cc2ccccc2)c(Nc2cc(Cl)c(Cl)cc2C)nc1=O [Compound I-0476] | < 10 |
| COc1cc(C)cc(Nc2nc(=O)c(OC)cn2Cc2ccc(F)c(Cl)c2)c1C [Compound I-0477] | < 10 |
| COc1cn(Cc2cc(C)cc(F)c2)c(Nc2cccc(Cl)c2C)nc1=O [Compound I-0478] | < 10 |
| COc1cn(Cc2cccc(Cl)c2)c(Nc2cccc(OC(F)F)c2C)nc1=O [Compound I-0479] | 10 to 100 |
| COc1cn(Cc2cccc(Cl)c2)c(Nc2cccc(C)c2Cl)nc1=O [Compound I-0481] | 10 to 100 |
| COc1cn(Cc2ccc(F)c(F)c2)c(Nc2cccc(C)c2Cl)nc1=O [Compound I-0482] | < 10 |
| COc1cn(Cc2ccc(F)c(Cl)c2)c(Nc2cccc(C)c2Cl)nc1=O [Compound I-0483] | < 10 |
| COc1cn(Cc2cccc(Cl)c2)c(Nc2cccc3sccc23)nc1=O [Compound I-0484] | 10 to 100 |
| COc1cn(Cc2ccc(F)c(F)c2)c(Nc2cccc3sccc23)nc1=O [Compound I-0485] | < 10 |
| COc1cn(Cc2ccc(F)c(Cl)c2)c(Nc2cccc3sccc23)nc1=O [Compound I-0486] | < 10 |
| COc1cn(Cc2ccc(F)c(F)c2)c(Nc2cccc3[nH]c(C)cc23)nc1=O [Compound I-0488] | 10 to 100 |
| COc1cn(Cc2ccc(F)c(Cl)c2)c(Nc2cccc3[nH]c(C)cc23)nc1=O [Compound I-0489] | < 10 |
| COc1cn(Cc2cccc(Cl)c2)c(Nc2cc3[nH]ncc3cc2C)nc1=O [Compound I-0490] | < 10 |
| COc1cn(Cc2ccc(F)c(F)c2)c(Nc2cc3[nH]ncc3cc2C)nc1=O [Compound I-0491] | < 10 |
| COc1cn(Cc2ccc(F)c(Cl)c2)c(Nc2cc3[nH]ncc3cc2C)nc1=O [Compound I-0492] | < 10 |
| COc1cn(Cc2ccccc2)c(Nc2cc(OCC(F)(F)F)ccc2C)nc1=O [Compound I-0493] | 10 to 100 |
| COc1cn(Cc2cccc(Cl)c2)c(Nc2cc(OCC(F)(F)F)ccc2C)nc1=O [Compound I-0494] | 10 to 100 |
| COc1cn(Cc2ccc(F)c(F)c2)c(Nc2cc(OCC(F)(F)F)ccc2C)nc1=O [Compound I-0495] | 10 to 100 |
| COc1cn(Cc2cc(F)cc(F)c2)c(Nc2cc(OCC(F)(F)F)ccc2C)nc1=O [Compound I-0496] | 10 to 100 |
| COc1cn(Cc2ccc(F)c(Cl)c2)c(Nc2cc(OCC(F)(F)F)ccc2C)nc1=O [Compound I-0497] | 10 to 100 |
| COc1ccc(Nc2nc(=O)c(OC)cn2Cc2ccccc2)c(C)c1C [Compound I-0499] | 10 to 100 |
| COc1cn(Cc2ccccc2)c(Nc2cc(C(C)(C)C)ccc2C)nc1=O [Compound I-0500] | 10 to 100 |
| COc1cn(Cc2ccc(F)c(Cl)c2)c(Nc2cc(C(C)(C)C)ccc2C)nc1=O [Compound I-0501] | 10 to 100 |
| COc1cn(Cc2ccc(F)c(Cl)c2)c(Nc2cc(C)cc(C)c2C)nc1=O [Compound I-0502] | 10 to 100 |
